Test results published in patent US4305950A, “Pharmaceutical agent containing amino derivatives of 2-methyl-5-(2-hydroxystyryl)-1,3,4-thiadiazole” (BASF Aktiengesellschaft, priority 1978, dated 1981).

Key:
cardiac beta-1-receptors = target: T1, cardiac beta-1-receptors (Felis catus, UniProt Q9TST6); experiment: Beta-sympatholytic action: inhibition of isoproterenol-induced tachycardia in narcotized cats; format: in vivo; conditions: for Beta-sympatholytic action, R.A. (relative activity): Propranolol = 1.00, cats, intravenous; for factor by which doses blocking cardiac beta-1-receptors are lower than those of propranolol: compared to propranolol
T1 construct: in narcotized cats (weight 2-4 kg); from tissue; host or cells: heart of the living narcotized cat (in vivo)
T1 sequence (Q9TST6 whole entry): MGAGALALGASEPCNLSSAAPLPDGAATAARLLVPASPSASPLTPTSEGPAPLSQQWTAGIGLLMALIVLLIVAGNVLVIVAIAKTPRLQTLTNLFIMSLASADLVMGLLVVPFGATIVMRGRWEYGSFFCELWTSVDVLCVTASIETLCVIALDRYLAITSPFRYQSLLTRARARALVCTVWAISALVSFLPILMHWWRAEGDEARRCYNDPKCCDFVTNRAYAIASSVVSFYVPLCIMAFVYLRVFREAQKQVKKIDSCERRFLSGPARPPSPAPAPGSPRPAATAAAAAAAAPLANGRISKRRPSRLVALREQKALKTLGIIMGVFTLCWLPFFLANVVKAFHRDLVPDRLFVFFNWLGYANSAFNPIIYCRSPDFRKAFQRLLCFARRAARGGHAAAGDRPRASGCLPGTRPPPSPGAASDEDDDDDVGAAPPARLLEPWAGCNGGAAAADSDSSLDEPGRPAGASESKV
From the text: The following test methods were used:
Beta-sympatholytic agents inhibit such tachycardia.
^(1) Inhibition of isoproterenolinduced tachycardia in cats under
hexobarbital narcosis. Intravenous administration.
^(2) Dose (mg/kg) which inhibits the isoproterenolinduced tachycardia

female NMRI mice = format: in vivo; conditions: for Therapeutic range, relative: mouse, in vivo

Row | Structure (SMILES) | Beta-sympatholytic action, R.A. (relative activity) (cardiac beta-1-receptors) | Therapeutic range, relative (female NMRI mice) | factor by which the therapeutic range is increased, compared to propranolol (female NMRI mice) | factor by which doses blocking cardiac beta-1-receptors are lower than those of propranolol (cardiac beta-1-receptors) | ED50 (cardiac beta-1-receptors; cat, cats under hexobarbital narcosis, intravenous administration, read-out: Beta-sympatholytic action, ED 50% (dose which inhibits the isoproterenol-induced tachycardia by 50%)) [µg/kg]
1 | Cc1nnc(C=Cc2ccccc2OCC(O)CNC(C)C)s1 (stereo not shown) [Example 1, 2-Methyl-5-[2-(2-hydroxy-3-isopropylamino-propoxy)-styryl]-1,3,4-thiadiazol] | 14.10 | 10.84 |  |  | 
2 | C#CC(C)NCC(O)COc1ccccc1C=Cc1nnc(C)s1 (stereo not shown) [Example 7, 2-Methyl-5-[2-(2-hydroxy-3-(but-1-ynyl-3-amino)-propoxy)-styryl]-1,3,4-thiadiazole] | 12.70 | 30.68 | 30.7 |  | 
3 | Cc1nnc(C=Cc2ccccc2OCC(O)CNC2CC2)s1 (stereo not shown) [Example 2, 2-Methyl-5-[2-(2-hydroxy-3-cyclopropylamino-propoxy)-styryl]-1,3,4-thiadiazole] | 11.75 | 7.55 | 7.6 | 12 | 
4 | Cc1nnc(C=Cc2ccccc2OCC(O)CNC(C)(C)C)s1 (stereo not shown) [Example 3, 2-Methyl-5-[2-(2-hydroxy-3-tert.-butylamino-propoxy)-styryl]-1,3,4-thiadiazole] | 25.22 | 13.73 |  | 25 | 5.59
